In patent publication US5117830A, “Method of determining viability of tissue” (priority 1990, dated 1992):
pKi: −log10 of the molar value. Like-named read-outs stand apart in the source and are kept apart here.

Assays:
[1] = tested on: rat cortical A1 receptors; test: Displacement of [^3 H]-CHA from rat cortical A1 receptors; assay type: binding; conditions: Table 4
Experimental: Varying concentrations of test compounds were incubated with the appropriate radioligand and membrane source for 1 hr at room temperature.
Assays were terminated by filtration over Whatman GF/B filters that had been pre-soaked with 0.1% polyethyleneimine using a 24 port Brandell cell hawester. The filters were washed three times with 3 ml of ice cold buffer and transferred to plastic scintillation vials to which 4 ml of Beckman Ready-Protein scintillation cocktail was added. The tubes were shaken and counted in a Beckman 3801 scintillation counter that converted cpm to dpm.
Data were analyzed by utilizing the Ligand commercial computer program (Munson and Rodbard, 1980).
Male Sprague Dawley rats were killed by decapitation and the brains removed. The cerebral cortices were homogenized in 50 mm Tris; 2mm MgCl2 (pH 7.4), and centrifuged at 40,000×g for 10 minutes. […] The homogenate was centrifuged, washed once, resuspended to a protein concentration of 5-10 mg/ml and frozen at -70° C. until use.

[2] = tested on: A2 adenosine receptors; test: Antagonism of adenosine agonists in decreasing contractile tone of guinea pig taenia caecum (A2); conditions: for antagonism of the effects of adenosine agonists in relaxing the taenia caecum: guinea pig taenia caecum; for selectivity for A1 adenosine receptors: lack of competitive antagonism in taenia caecum
Experimental: Taenia from the guinea pig caecum were cut into lengths of 1.5-2 cm. The tissues were suspended in a 20 ml organ bath containing de Jalon's solution that was gassed with 95% O2 +5% CO2 and maintained at 31° C. The resting tension was 1.5 g. The contractile response was measured isotonically.
(§1) The ability of the compounds to antagonize the effects of agonists was analyzed using modified Schild plots.

[3] = tested on: rat heart rate and blood pressure; test: In vivo rat heart rate and blood pressure
Experimental: Rats were anesthetized with urethan and blood pressure was monitored via a carotid cannula. Drug injections were made intravenously through a jugular cannula. Blood pressure, EGC, and heart rate were recorded on a Grass polygraph.

[4] = biological target: T1, A1 adenosine receptors (Cavia porcellus, UniProt P47745); test: Antagonism of adenosine agonists in reducing force of contraction of guinea pig atrium (A1); conditions: for competitive antagonism at adenosine receptors in the atria / basal force of contraction in the atria: guinea pig atria
T1 construct: The left atria from male guinea pigs were isolated; from tissue; host or cells: guinea pig left atrium (whole tissue in organ bath)
T1 sequence (P47745 1-326): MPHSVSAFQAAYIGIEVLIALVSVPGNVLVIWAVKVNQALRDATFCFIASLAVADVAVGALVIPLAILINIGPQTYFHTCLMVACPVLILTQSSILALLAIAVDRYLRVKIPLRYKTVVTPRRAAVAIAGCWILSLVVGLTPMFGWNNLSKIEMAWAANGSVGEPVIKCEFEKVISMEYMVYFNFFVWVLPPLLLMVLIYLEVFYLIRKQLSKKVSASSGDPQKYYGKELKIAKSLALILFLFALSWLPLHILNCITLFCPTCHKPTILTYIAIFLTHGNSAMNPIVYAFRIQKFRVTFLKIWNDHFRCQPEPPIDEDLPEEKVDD
Experimental: The left atria from male guinea pigs were isolated, suspended between two punctate electrodes, and placed in a 20 ml organ bath that contained Krebs-Hensileit solution that was continuously gassed with 95% O2 +5% CO2 and maintained at 31° C. The resting tension was one gram. The atria were stimulated electrically at 1 Hz, 1 msec duration pulses at supramaximal voltage. The force of contraction was recorded isometrically.
as §1

[5] = tested on: adenosine receptors; conditions: cited from earlier work
[6] = tested on: coronary artery; conditions: cited from earlier work
[7] = tested on: patients; conditions: in vivo; cited from earlier work
[8] = cited from earlier work
[9] = tested on: A2 receptors; conditions: vs N^6 -substituted analogs; cited from earlier work
[10] = biological target: T2, A1 receptors (Rattus norvegicus, UniProt P25099); test: Inhibition of N^6 -R-[^3 H]-phenylisopropyladenosine binding in rat brain membranes; design: rat brain membranes; from tissue; host or cells: rat brain (membranes); conditions: for pKi: (D) Rat Brain Membranes, read-out: Ki vs [^3 H] PIA (Binding), A1 Effects
T2 sequence (P25099 1-326): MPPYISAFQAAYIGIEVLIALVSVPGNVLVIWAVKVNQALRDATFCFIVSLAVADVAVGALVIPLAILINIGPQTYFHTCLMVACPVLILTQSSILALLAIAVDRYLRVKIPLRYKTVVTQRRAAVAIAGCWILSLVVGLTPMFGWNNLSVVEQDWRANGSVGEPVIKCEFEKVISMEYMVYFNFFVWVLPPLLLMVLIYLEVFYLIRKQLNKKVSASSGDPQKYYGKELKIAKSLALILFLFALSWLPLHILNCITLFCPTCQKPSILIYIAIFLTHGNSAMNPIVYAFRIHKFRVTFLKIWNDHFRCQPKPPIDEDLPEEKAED
Experimental: (§2) For activity at A1 receptors, compounds were tested as inhibitors of the binding of N^6 -R-[^3 H]-Phenylisopropyladenosine in rat brain membranes and for their ability to prevent R-PIA-induced inhibition of adenylate cyclase in rat fat cell membranes.

[11] = biological target: T3, A2 receptors (Homo sapiens, UniProt P29274); test: Antagonism of NECA-stimulated adenylate cyclase in human platelet membranes; assay type: biochemical
T3 construct: membranes of human platelets; from tissue; host or cells: human platelets (membranes)
T3 sequence (P29274 whole entry): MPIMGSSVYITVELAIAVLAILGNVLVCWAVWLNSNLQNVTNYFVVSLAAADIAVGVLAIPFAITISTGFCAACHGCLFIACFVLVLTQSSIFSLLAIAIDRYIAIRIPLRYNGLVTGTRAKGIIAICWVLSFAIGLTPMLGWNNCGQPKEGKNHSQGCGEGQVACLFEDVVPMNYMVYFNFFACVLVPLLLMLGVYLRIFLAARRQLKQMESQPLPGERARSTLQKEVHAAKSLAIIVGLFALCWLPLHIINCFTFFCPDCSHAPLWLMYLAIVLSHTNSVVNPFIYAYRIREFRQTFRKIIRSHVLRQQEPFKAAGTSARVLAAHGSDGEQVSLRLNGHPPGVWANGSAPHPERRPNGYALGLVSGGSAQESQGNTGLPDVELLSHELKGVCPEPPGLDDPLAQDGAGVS

[12] = biological target: T2, A1 receptors; test: Prevention of R-PIA-induced inhibition of adenylate cyclase in rat fat cell membranes; assay type: biochemical
Experimental: as §2

[13] = biological target: T4, A2 receptors (Rattus norvegicus, UniProt P30543); test: Antagonism of NECA-stimulated adenylate cyclase in rat PC12 membranes; assay type: biochemical; conditions: read-out: KB vs NECA Stimulation (Adenylate Cyclase), A2 Effects; (B) Rat PC12 Membranes
T4 construct: NECA-stimulated adenylate cyclase
T4 sequence (P30543 whole entry): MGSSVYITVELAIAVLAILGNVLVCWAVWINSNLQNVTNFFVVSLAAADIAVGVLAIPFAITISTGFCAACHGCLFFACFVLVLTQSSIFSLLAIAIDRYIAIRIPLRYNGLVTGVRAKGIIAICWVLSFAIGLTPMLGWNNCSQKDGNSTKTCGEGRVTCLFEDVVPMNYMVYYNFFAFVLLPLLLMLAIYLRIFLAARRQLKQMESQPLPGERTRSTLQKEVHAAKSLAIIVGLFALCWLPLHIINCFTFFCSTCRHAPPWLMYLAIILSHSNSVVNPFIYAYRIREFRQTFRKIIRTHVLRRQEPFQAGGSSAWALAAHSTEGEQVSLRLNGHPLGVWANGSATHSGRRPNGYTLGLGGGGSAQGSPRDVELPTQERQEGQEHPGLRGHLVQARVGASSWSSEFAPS
Experimental: as §2, with “membranes. For activity at A2 receptors, compounds were tested as antagonists of NECA-stimulated adenylate cyclase in membranes of human platelets and rat PC12 cells.” for “membranes.”

[14] = anesthetized rats, high doses of adenosine
[15] = prior administration, NECA as agonist

For Cn1cnc2c(N[C@H]3C[C@H]4CC[C@@H]3C4)ncnc21 (relative stereo) [compound 0861, N^6-(endo-2-norbornyl)-9-MA], which “selectivity for A1 receptors over A2 receptors” value [1] is on record?
Its value is 170 fold.

What about the “A1 /A2” value ([1]; ratio of Ki values) of the same molecule?
The value was 5.89 × 10^-3.

What about the “antagonism of the effects of adenosine agonists in relaxing the taenia caecum” value (from here on “antagonism … in relaxing the taenia caecum”) [2] of the same molecule?
Its value is “did not competitively antagonize”.

What about the “selectivity for A1 adenosine receptors” value [2] of the same molecule?
Its value is “selective for A1 adenosine receptors”.

And the “effects of subsequently administered adenosine on all parameters (blood pressure, heart rate, P-R interval)” value ([3]; anesthetized rats, antagonist given before adenosine)?
The value was “attenuated the effects of subsequently administered adenosine on all parameters measured”.

And the adenosine-induced heart block [3, 14]?
The adenosine-induced heart block was “substantially reduced”.

And the “NECA-induced decrease in blood pressure” value [3, 15]?
The value was “minimally affecting the NECA-induced decrease in blood pressure”.

What about the “effects of NECA on the heart” value [3, 15] of the same molecule?
Its value is “attenuated the effects of NECA on the heart”.

What about the selectivity in vivo ([3]; rat) of the same molecule?
The selectivity in vivo was “cardioselective adenosine receptor antagonist in vivo”.

And the “selectivity towards the A1 adenosine receptor / rank of potency” value ([4]; Table 2 compounds)?
Its value is “the most potent antagonist”.

What about the “competitive antagonism at adenosine receptors in the atria” value (“competitive antagonism” for short) [4] of the same molecule?
The value was “competitive antagonists”.

For Cn1c(=O)c2[nH]c(-c3ccccc3)nc2n(C)c1=O [8-phenyltheophylline (8-PT), 8-phenyltheophylline, reference compound], which “antagonism … in relaxing the taenia caecum” value [2] is on record?
Its value is “did antagonize the effects of agonists at low concentrations”.

What about the “sensitization of the tissue” value ([2]; high concentrations, larger response to agonist) of the same molecule?
Its value is “Sensitization is also observed when using high concentrations”.

And the receptor selectivity [5]?
Its receptor selectivity is “non-selective adenosine receptor antagonist”.

With Nc1ncnc2c1ncn2[C@@H]1O[C@H](CO)[C@@H](O)[C@H]1O [Adenosine, reference compound] as the molecule, how does the “heart rate, ventilation and airway resistance” value [6] read?
Its value is “increases heart rate, and stimulates ventilation but does not alter airway resistance”.

And the “vasodilation / coronary blood flow” value [6]?
The value was “potent vasodilator, except in the kidney”.

What about the side effects [7] of the same molecule?
The side effects was “a number of cardiovascular, respiratory, central nervous system, and gastrointestinal side effects”.

What about the heart block [3, 14] of the same molecule?
The heart block was “At high doses, adenosine causes heart block”.

What about the “P-R interval of the ECG” value ([3]; anesthetized rats, intravenous) of the same molecule?
Its value is “concomitant increase in the P-R interval”.

And the blood pressure ([3]; anesthetized rats, intravenous)?
Its blood pressure is “dose dependent decrease in blood pressure”.

What about the heart rate ([3]; anesthetized rats, intravenous) of the same molecule?
The heart rate was “dose dependent decrease in blood pressure and heart rate”.

And the half-life ([8]; in vivo)?
Its half-life is “less than two”.

With OCCN(CCO)c1nc(N2CCCCC2)c2nc(N(CCO)CCO)nc(N3CCCCC3)c2n1 [Dipyridamole, dipyridamole] as the molecule, how does the “vasodilation / coronary blood flow” value [6] read?
The value was “increase in coronary blood flow”.

What about the side effects [7] of the same molecule?
The side effects was “rare but potentially serious side effects which include myocardial ischemia, cardiac arrhythmia, and sudden death”.

And the “half-life compared with adenosine” value ([8]; dipyridamole)?
Its value is “significantly longer half-life”.

For CCNC(=O)[C@H]1O[C@@H](n2cnc3c(N)ncnc32)[C@H](O)[C@@H]1O [NECA, 5'-N-ethylcarboxamido-adenosine], which “potency at A2 receptors” value [9] is on record?
Its value is “more potent than N^6 -substituted analogs”.

With Cn1cnc2c(NC3CCCCC3)ncnc21 [N^6 -Cyclohexyl-9-MA] as the molecule, how does the pKi [10] read?
Its pKi is 6.03.

Which “basal force of contraction in the atria” value [4] does the source give for CCC(Cc1cccs1)Nc1ncnc2c1ncn2C (stereo not drawn) [N^6-1-(2-thienyl)-2-butyl-9-MA] here?
The value was “increases in basal force of contraction”.

What about the “competitive antagonism” value [4] of the same molecule?
Its value is “competitive antagonists”.

Which “antagonism … in relaxing the taenia caecum” value [2] does the source give for CCC(CC)Nc1ncnc2c1ncn2C [N^6-3-Pentyl-9-MA] here?
The value was “did not competitively antagonize”.

What about the “selectivity for A1 adenosine receptors” value [2] of the same molecule?
The value was “selective for A1 adenosine receptors”.

What about the “basal force of contraction in the atria” value [4] of the same molecule?
Its value is “increases in basal force of contraction”.

What about the “competitive antagonism” value [4] of the same molecule?
The value was “competitive antagonists”.

For Cn1c(=O)c2c(ncn2C)n(C)c1=O [caffeine], which “antagonism at adenosine receptors” value [5] is on record?
Its value is “best known antagonists at adenosine receptors”.

Which results are given for Cn1cnc2c(NC3CCCC3)ncnc21 [compound 0840, N^6-cyclopentyl-9-MA]?
potency relative to 9-methyladenine at A2 receptors ([11]; human platelet assay): fivefold more potent; pKi [10]: 6.27; potency relative to 9-methyladenine at A1 receptors ([10]; A1 receptors): at least 100 fold; antagonism of the effects of adenosine agonists in relaxing the taenia caecum [2]: did not competitively antagonize; selectivity for A1 adenosine receptors [2]: selective for A1 adenosine receptors; competitive antagonism at adenosine receptors in the atria [4]: competitive antagonists

For C[C@@H](Cc1ccccc1)Nc1ncnc2c1ncn2C [compound 0986, N^6 -S-1-phenyl-2-propyl-9-MA], which Kb [12] is on record?
Its Kb is 23 µM.

Which results are given for N^6 -Methylcylopentyl-9-MA?
Kb ([11]; read-out: KB vs NECA Stimulation (Adenylate Cyclase), A2 Effects, (A) Human Platelet Membranes): 45 µM; Kb ([12]; (C) Rat Fat Cell Membranes, read-out: KB vs PIA INHIBITION (Adenylate Cyclase), A1 Effects): 9 µM; pKi [10]: 5.60; Kb [13]: 56 µM
